Like-named read-outs stand apart in the source and are kept apart here.
How the values were obtained:
Type in all cases: in vivo
weeds and/or crops = experiment: Post-emergence biological efficacy (Table 4); conditions: 1000 g/ha, evaluated after 13 days; for pest or weed control at 1000 g/ha: 312 h
Summary of the method: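 Weeds and crops were grown 14 days in a glasshouse, then sprayed post-emergence with compound formulated in acetone/F50 and diluted in 0.2% Genapol X080 to the final dose. Damage was scored after 13 days on a 0–100 scale, where 100 is total damage.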

IPOHE = experiment: Pre-emergence biological efficacy (Table 3); conditions: 1000 g/ha, after 13 days; for pest or weed control at 1000 g/ha: Ipomoea hederacea, 312 h, read-out: evaluation (100=total damage to plant; 0=no damage to plant)
Summary of the method: (§1)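 Sown pots, 1 d glasshouse (24/19 °C, 16 h light), pre-emergence spray of compound from 50 g/l AMA formulation diluted in 0.2% Genapol X080. Grown at 24/18 °C, 15 h light, 50% humidity, watered twice daily; scored 0–100 damage at 13 d.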

ECHCG = experiment: Pre-emergence biological efficacy (Table 3); conditions: 1000 g/ha, after 13 days; for pest or weed control at 1000 g/ha: Echinochloa crus-galli, 312 h, read-out: evaluation (100=total damage to plant; 0=no damage to plant)
Summary of the method: as §1

SETFA = experiment: Pre-emergence biological efficacy (Table 3); conditions: Setaria faberi, 312 h, 1000 g/ha, after 13 days, read-out: evaluation (100=total damage to plant; 0=no damage to plant)
Summary of the method: as §1

AMAPA = experiment: Pre-emergence biological efficacy (Table 3); conditions: 312 h, 1000 g/ha, after 13 days, read-out: evaluation (100=total damage to plant; 0=no damage to plant)
Summary of the method: as §1

ZEAMX = experiment: Pre-emergence biological efficacy (Table 3); conditions: 1000 g/ha, after 13 days; for plant injury at 1000 g/ha: 312 h, read-out: evaluation (100=total damage to plant; 0=no damage to plant)
Summary of the method: as §1

AMARE [1] = experiment: Pre-emergence biological efficacy (Table 3); conditions: 1000 g/ha, after 13 days; for pest or weed control at 1000 g/ha: Amaranthus retroflexus, 312 h, read-out: evaluation (100=total damage to plant; 0=no damage to plant)
Summary of the method: as §1

AMARE [2] = experiment: Biological efficacy, post-emergence glasshouse test (Table 2); conditions: 1000 g/ha, after 12 days
Method: (§2) Seeds of a variety of test species were shown in unsterilised compost in small pots. After cultivation for one day (pre-emergence) or seven days (post-emergence) in controlled conditions in the glasshouse (at 24/16° C., day/night; 14 hours light; 65% humidity) the plants were sprayed with 1 mg of the active ingredient, formulated in 466 μl of a acetone/water/Tween 20 (49.75:49.75:0.5) solution, which is equivalent to 1000 g/ha. Once the foliage was dry, the pots were kept in the glasshouse (at 24/16° C., day/night; 14 hours light; 65% humidity), and were watered twice daily. After 12 days the test was evaluated and scored (100=total damage to plant, 0=no damage to plant).

LOLPE [3] = experiment: as above; conditions: 1000 g/ha, after 12 days
Method: as §2

STEME [4] = experiment: as above; conditions: 1000 g/ha, after 12 days
Method: as §2

DIGSA [5] = experiment: as above; conditions: 1000 g/ha, after 12 days
Method: as §2

AMARE [6] = experiment: Biological efficacy, pre-emergence glasshouse test (Table 2); conditions: 1000 g/ha, after 12 days
Method: as §2

LOLPE [7] = experiment: as above; conditions: 1000 g/ha, after 12 days
Method: as §2

STEME [8] = experiment: as above; conditions: 1000 g/ha, after 12 days
Method: as §2

DIGSA [9] = experiment: as above; conditions: 1000 g/ha, after 12 days
Method: as §2

ABUTH = experiment: Pre-emergence biological efficacy (Table 3); conditions: after 13 days
Summary of the method: as §1

STEME [10] = experiment: Pre-emergence biological efficacy (Table 3); conditions: after 13 days
Summary of the method: as §1

[11] = AMAPA, read-out: damage to plant AMAPA (100=total damage; 0=no damage)
[12] = ZEAMX, read-out: damage to plant ZEAMX (100=total damage; 0=no damage)
[13] = Amaranthus retroflexus, AMARE, read-out: damage to plant AMARE (100=total damage; 0=no damage)
[14] = Echinochloa crus-galli, ECHCG, read-out: damage to plant ECHCG (100=total damage; 0=no damage)
[15] = Ipomoea hederacea, IPOHE, read-out: damage to plant IPOHE (100=total damage; 0=no damage)
[16] = Setaria faberi, SETFA, read-out: damage to plant SETFA (100=total damage; 0=no damage)

| Compound | pest or weed control at 1000 g/ha (weeds and/or crops; [11]) | pest or weed control at 1000 g/ha (weeds and/or crops; [12]) | pest or weed control at 1000 g/ha (weeds and/or crops; [13]) | pest or weed control at 1000 g/ha (weeds and/or crops; [14]) | pest or weed control at 1000 g/ha (weeds and/or crops; [15]) | pest or weed control at 1000 g/ha (weeds and/or crops; [16]) | pest or weed control at 1000 g/ha (IPOHE) | pest or weed control at 1000 g/ha (ECHCG) | pest or weed control at 1000 g/ha (SETFA) | pest or weed control at 1000 g/ha (AMAPA) | plant injury at 1000 g/ha (ZEAMX) | pest or weed control at 1000 g/ha (AMARE [1]) | score (100=total damage to plant, 0=no damage to plant) (AMARE [2]) | score (100=total damage to plant, 0=no damage to plant) (LOLPE [3]) | score (100=total damage to plant, 0=no damage to plant) (STEME [4]) | score (100=total damage to plant, 0=no damage to plant) (DIGSA [5]) | score (100=total damage to plant, 0=no damage to plant) (AMARE [6]) | score (100=total damage to plant, 0=no damage to plant) (LOLPE [7]) | score (100=total damage to plant, 0=no damage to plant) (STEME [8]) | score (100=total damage to plant, 0=no damage to plant) (DIGSA [9]) | other results |
| --- | --- | --- | --- | --- | --- | --- | --- | --- | --- | --- | --- | --- | --- | --- | --- | --- | --- | --- | --- | --- | --- |
| COc1c(C)cccc1C(F)(F)C(=O)O [Compound 1-463, 2,2-Difluoro-2-(2-methoxy-3-methyl-phenyl)acetic acid] | 70% | 10% | 80% | 10% | 70% | 30% | 50% | 0% | 0% | 60% | 0% | 50% | – | – | – | – | – | – | – | – | – |
| Cc1cccc(C(F)(F)C(=O)O)c1C#N [Compound 1-462, 2-(2-Cyano-3-methyl-phenyl)-2,2-difluoro-acetic acid] | 80% | 10% | 80% | 0% | 70% | 20% | 40% | 0% | 0% | 30% | 0% | 50% | – | – | – | – | – | – | – | – | – |
| N.N#Cc1cccc(C(F)(F)C(=O)O)c1Cl [Compound 7-231, Ammonium;2-(2-chloro-3-cyano-phenyl)-2,2-difluoro-acetate] | – | – | – | – | – | – | – | – | – | – | – | – | 90 | 0 | 80 | 70 | 90 | 40 | 100 | 80 | damage to plant ABUTH (100=total damage; 0=no damage) (weeds and/or crops; ABUTH): 90; damage to plant AMARE (100=total damage; 0=no damage) (weeds and/or crops; AMARE): 90; damage to plant ECHCG (100=total damage; 0=no damage) (weeds and/or crops; ECHCG): 10; damage to plant IPOHE (100=total damage; 0=no damage) (weeds and/or crops; IPOHE): 80; damage to plant STEME (100=total damage; 0=no damage) (weeds and/or crops; STEME): 100; damage to plant ZEAMX (100=total damage; 0=no damage) (weeds and/or crops; ZEAMX): 30; evaluation (100=total damage to plant; 0=no damage to plant) (ABUTH; 1000 g/ha): 90; evaluation (100=total damage to plant; 0=no damage to plant) (IPOHE): 80; evaluation (100=total damage to plant; 0=no damage to plant) (ECHCG): 10; evaluation (100=total damage to plant; 0=no damage to plant) (ZEAMX): 50; evaluation (100=total damage to plant; 0=no damage to plant) (AMARE [1]): 90; evaluation (100=total damage to plant; 0=no damage to plant) (STEME [10]; 1000 g/ha): 100 |
| CCOC(=O)C(F)(F)c1cccc2cccc(C(F)(F)C(=O)OCC)c12 [Compound 3-419, Ethyl 2-[8-(2-ethoxy-1,1-difluoro-2-oxo-ethyl)-1-naphthyl]-2,2-difluoro-acetate] | – | 0% | 20% | 0% | 70% | – | 10% | 0% | – | – | 0% | 20% | 80 | 0 | 70 | 40 | 80 | 0 | 60 | 0 | pest or weed control at 1000 g/ha (weeds and/or crops; STEME, read-out: damage to plant STEME (100=total damage; 0=no damage)): 100%; pest or weed control at 1000 g/ha (weeds and/or crops; Abutilon theophrasti, ABUTH, read-out: damage to plant ABUTH (100=total damage; 0=no damage)): 80%; pest or weed control at 1000 g/ha (ABUTH; Abutilon theophrasti, 312 h, read-out: evaluation (100=total damage to plant; 0=no damage to plant)): 30%; pest or weed control at 1000 g/ha (STEME [10]; 312 h, read-out: evaluation (100=total damage to plant; 0=no damage to plant)): 40% |
| COCc1c(Cl)cccc1C(F)(F)C(=O)O [Compound 1-436, 2-[3-Chloro-2-(methoxymethyl)phenyl]-2,2-difluoro-acetic acid] | – | – | – | – | – | – | 40% | 0% | 20% | 40% | 0% | 30% | – | – | – | – | – | – | – | – | – |

Reference: patent publication US20240251792A1, “WEED CONTROL METHOD” (SYNGENTA CROP PROTECTION AG, priority 2021, published 2024)
